Tested on: 996289-038-R-J1-PDC spheroid viability
Test: Anticancer human tumor 996289-038-R-J1-PDC patient-derived colon adenocarcinoma cell line growth inhibition [PI3K]
Settings: spheroids with HUVEC and MSC; for IC50: curve of first compound; for viability, T/C: stronger effect = lower value; active = viability on the fitted dose curve at most 10% of control; inactive = the rest
Procedure, shortened: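 High-throughput combination screen: PI3K inhibitors crossed with targeted small molecules on complex spheroids of tumor cells, HUVEC and MSCs at 37 degrees C, 5% CO2. Top concentration was at or near clinical Cmax (otherwise 10 microM), with half-log decrements.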

[1] = second compound 0.00316 µM, first compound 0.0316 µM
[2] = second compound 0.00316 µM, first compound 0.1 µM
[3] = second compound 0.00316 µM, first compound 0.316 µM
[4] = second compound 0.00316 µM, first compound 1 µM
[5] = second compound 0.00316 µM, first compound 3.16 µM
[6] = second compound 0.00316 µM, first compound 10 µM
[7] = second compound 0.01 µM, first compound 0.0316 µM
[8] = second compound 0.01 µM, first compound 0.1 µM
[9] = second compound 0.01 µM, first compound 0.316 µM
[10] = second compound 0.01 µM, first compound 1 µM
[11] = second compound 0.01 µM, first compound 3.16 µM
[12] = second compound 0.01 µM, first compound 10 µM
[13] = second compound 0.0316 µM, first compound 0.0316 µM
[14] = second compound 0.0316 µM, first compound 0.1 µM
[15] = second compound 0.0316 µM, first compound 0.316 µM
[16] = second compound 0.0316 µM, first compound 1 µM
[17] = second compound 0.0316 µM, first compound 3.16 µM
[18] = second compound 0.0316 µM, first compound 10 µM
[19] = second compound 0.1 µM, first compound 0.0316 µM
[20] = second compound 0.1 µM, first compound 0.1 µM
[21] = second compound 0.1 µM, first compound 0.316 µM
[22] = second compound 0.1 µM, first compound 1 µM
[23] = second compound 0.1 µM, first compound 3.16 µM
[24] = second compound 0.1 µM, first compound 10 µM
[25] = second compound 0.316 µM, first compound 0.0316 µM
[26] = second compound 0.316 µM, first compound 0.1 µM
[27] = second compound 0.316 µM, first compound 0.316 µM
[28] = second compound 0.316 µM, first compound 1 µM
[29] = second compound 0.316 µM, first compound 3.16 µM
[30] = second compound 0.316 µM, first compound 10 µM
[31] = second compound 1 µM, first compound 0.0316 µM
[32] = second compound 1 µM, first compound 0.1 µM
[33] = second compound 1 µM, first compound 0.316 µM
[34] = second compound 1 µM, first compound 1 µM
[35] = second compound 1 µM, first compound 3.16 µM
[36] = second compound 1 µM, first compound 10 µM
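Note: spheroids exposed to compounds for seven days before viability read.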
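Throughout, for viability, T/C: luminescence used as a proxy for viable cell amount; percent viability relative to DMSO vehicle control as 100%.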

CC(Cn1ccc(-c2ccc(C#N)c(Cl)c2)n1)NC(=O)c1cc(C(C)O)[nH]n1 (stereo unspecified) + COc1c(OCCCN2CCOCC2)ccc2c3n(c(=NC(=O)c4cnc(N)nc4)nc12)CCN3
< 0.0316 µM: IC50 (second compound 0.316 µM) | IC50 (second compound 1 µM)
> 10 µM: IC50 (second compound 0.00316 µM) | IC50 (second compound 0.01 µM) | IC50 (second compound 0.0316 µM) | IC50 (second compound 0.1 µM)
inactive: viability, T/C [1] 103% | viability, T/C [2] 91.1% | viability, T/C [3] 98% | viability, T/C [4] 99% | viability, T/C [5] 96.9% | viability, T/C [6] 102% | viability, T/C [7] 90.5% | viability, T/C [8] 97.2% | viability, T/C [9] 92.6% | viability, T/C [10] 93.1% | viability, T/C [11] 103% | viability, T/C [12] 89.7% | viability, T/C [13] 69.7% | viability, T/C [14] 79.4% | viability, T/C [15] 85.6% | viability, T/C [16] 80% | viability, T/C [17] 78.9% | viability, T/C [18] 78.7% | viability, T/C [19] 55% | viability, T/C [20] 56.6% | viability, T/C [21] 66.7% | viability, T/C [22] 64.8% | viability, T/C [23] 72.3% | viability, T/C [24] 56.1% | viability, T/C [25] 34.1% | viability, T/C [26] 38.9% | viability, T/C [27] 40% | viability, T/C [28] 41% | viability, T/C [29] 40.5% | viability, T/C [30] 39.9% | viability, T/C [31] 25.2% | viability, T/C [32] 17.5% | viability, T/C [33] 23% | viability, T/C [34] 18% | viability, T/C [35] 22.1% | viability, T/C [36] 17.5%

CC1(C)CCC(Nc2ncc(C(F)(F)F)c(-c3c[nH]c4c(P(C)(C)=O)c(C#N)ccc34)n2)CN1 (stereo unspecified) + COc1c(OCCCN2CCOCC2)ccc2c3n(c(=NC(=O)c4cnc(N)nc4)nc12)CCN3
< 0.0316 µM: IC50 (second compound 0.316 µM) | IC50 (second compound 1 µM)
inactive: viability, T/C [1] 106% | viability, T/C [2] 74.7% | viability, T/C [3] 80% | viability, T/C [4] 68.6% | viability, T/C [5] 86.3% | viability, T/C [6] 15% | viability, T/C [7] 91.2% | viability, T/C [8] 78.9% | viability, T/C [9] 75.2% | viability, T/C [10] 75.8% | viability, T/C [11] 76.4% | viability, T/C [12] 13.6% | viability, T/C [13] 71.8% | viability, T/C [14] 65.2% | viability, T/C [15] 63.7% | viability, T/C [16] 64.6% | viability, T/C [17] 66% | viability, T/C [18] 13% | viability, T/C [19] 59.5% | viability, T/C [20] 53.4% | viability, T/C [21] 52.1% | viability, T/C [22] 49.7% | viability, T/C [23] 53.7% | viability, T/C [25] 34.6% | viability, T/C [26] 30.2% | viability, T/C [27] 34% | viability, T/C [28] 34% | viability, T/C [29] 28.5% | viability, T/C [30] 6.2% | viability, T/C [31] 17% | viability, T/C [32] 14.3% | viability, T/C [33] 15.9% | viability, T/C [34] 17% | viability, T/C [35] 15.1% | viability, T/C [36] 4.85%
active: viability, T/C [24] 8.16%
5.12 µM: IC50 (second compound 0.01 µM)
4.48 µM: IC50 (second compound 0.0316 µM)
3.46 µM: IC50 (second compound 0.1 µM)
5.54 µM: IC50 (second compound 0.00316 µM)

Cn1nccc1Nc1nccc(-c2ccn(C(CO)c3ccc(Cl)c(F)c3)c(=O)c2)n1 (stereo unspecified) + COc1c(OCCCN2CCOCC2)ccc2c3n(c(=NC(=O)c4cnc(N)nc4)nc12)CCN3
inactive: viability, T/C [1] 94.8% | viability, T/C [2] 82.6% | viability, T/C [3] 104% | viability, T/C [4] 83.6% | viability, T/C [5] 86.4% | viability, T/C [6] 55.6% | viability, T/C [7] 95.6% | viability, T/C [8] 87.5% | viability, T/C [9] 91.2% | viability, T/C [10] 93.6% | viability, T/C [11] 73.3% | viability, T/C [12] 56.3% | viability, T/C [13] 100% | viability, T/C [14] 80.1% | viability, T/C [15] 80% | viability, T/C [16] 76% | viability, T/C [17] 58% | viability, T/C [18] 41.2% | viability, T/C [19] 69.5% | viability, T/C [20] 62.8% | viability, T/C [21] 64.3% | viability, T/C [22] 54% | viability, T/C [23] 51.9% | viability, T/C [24] 22.4% | viability, T/C [25] 44.9% | viability, T/C [26] 34.7% | viability, T/C [27] 35% | viability, T/C [28] 36.4% | viability, T/C [29] 27.9% | viability, T/C [30] 18.5% | viability, T/C [31] 18.8% | viability, T/C [32] 20.6% | viability, T/C [33] 24% | viability, T/C [34] 17.7% | viability, T/C [35] 15% | viability, T/C [36] 9.77%
2.56 µM: IC50 (second compound 0.1 µM)
5.91 µM: IC50 (second compound 0.0316 µM)
> 10 µM: IC50 (second compound 0.00316 µM) | IC50 (second compound 0.01 µM)
< 0.0316 µM: IC50 (second compound 0.316 µM) | IC50 (second compound 1 µM)

Reference: PubChem BioAssay AID1963965 (Molecular Pharmacology Branch, DTP, NCI, 2024)
